Measured values as given in BindingDB's records for doi:10.1021/jm300844m (The University of Newcastle, 2013).

Assay: Inhibition of dyn2 in human U2OS cells assessed as clathrin-mediated endocytosis of Tfn after 30 mins

Row | IC50 | SMILES
1 | 3.5 µM | CCCCCCCCNCc1cn(CCCN(C)C)c2ccccc12
2 | 5 µM | CCCCCCCCNC(=O)/C(C#N)=C/c1cn(CCCN(C)C)c2ccccc12 [2-Cyano-N-octyl-3-(1-(3-dimethylaminopropyl)-1H-indol-3-yl)-acrylamide]
